Data as given in patent publication US20250304587A1, “WEE1 INHIBITOR, PREPARATION THEREFOR AND USE THEREOF” (JIANGSU TASLY DIYI PHARMACEUTICAL CO., LTD., priority 2022, published 2025).
Like-named read-outs stand apart in the source and are kept apart here.

Experiments:
[1] = rat, in vivo; for Death Numbers / Death Rate: SD, 14 days
[2] = tested on: human colon cancer HT-29 cells xenograft; test: Anti-tumor efficacy, HT-29 xenograft (CDX model); assay type: in vivo, female BALB/c nude mice; conditions: HT-29 model, after 24 days
Protocol: Experimental method: BALB/c nude mice (provided by Charles River) were selected, 7-8 weeks old and weighing 19-22 g.
The prepared and cultured HT-29 cells were counted, and 5×10^6 HT-29 cells were mixed in 0.1 mL PBS solution and inoculated subcutaneously on the right wing of mice. When the cells became tumors and the average tumor volume reached 120 mm^3, they began to be grouped and administered. […] The experimental indicator was to check whether the tumor growth was inhibited. The formula for calculating the tumor volume was: V=0.5a×b^2, where a and b respectively indicated the long and short diameters of the tumor.
The anti-tumor effects of the compounds were evaluated by TGI (%).

[3] = Pharmacokinetics on single dose in rats (iv and po); assay type: in vivo, male SD rats
Protocol: Pharmacokinetic properties of the drug in male SD rats were evaluated by the same method with in vivo pharmacokinetic study with mice.

[4] = Metabolic stability in liver microsomes, monkey; assay type: in vitro ADME
Protocol: Microsomes were taken out from the −80° C. refrigerator, rapidly melted in a 37° C. water bath and placed on ice until ready to use. The test article was diluted with DMSO to prepare a 10 mM stock solution, and then diluted with acetonitrile to a 0.5 mM secondary stock solution. […] NADPH was diluted with Buffer C to a working solution of 6 mM for the starter solution. An acetonitrile solution containing an internal standard was prepared as the precipitant, and Verapamil-HCl was chosen as the internal standard at a concentration of 4 ng/ml. […] A separate plate with pointed bottom wells, noted as a precipitation plate, was added with 135 μL precipitant per well; 0 h samples were transferred to the plate after 10 min incubation and 15 μL of starter solution was added; the plate was placed on ice before centrifugation. The diluted starter solution was added in sufficient quantity to the dispensing plate to facilitate the multichannel pipette aspiration operation. The reaction was carried out on a warm incubation shaker and 15 μL of starter solution/sample is added to the plate using a multichannel pipette. The reaction was mixed with a slight shake to initiate the reaction, which was accurately timed and recorded using a timer; After the reaction time had elapsed, all the solution in the plate was aspirated using the multichannel pipette and added to the precipitation plate to terminate the reaction at that point in time. After all reactions had been terminated, the plates were shaken for ten minutes on a plate shaker at 600 rpm to precipitate the protein. The plate was centrifuged at 4° C. for 15 minutes at maximum rpm. 80 μL of supernatant was taken, 320 μL of pure water was added and mixed for LC-MS analysis.

[5] = Pharmacokinetics on single dose in mice (iv and po); assay type: in vivo, male ICR mice
Description: The present experiment aimed to study the pharmacokinetics in the plasma of male ICR mice after the administration. The present experiment aimed to obtain the pharmacokinetic profile of the subject compounds in ICR mice (both intravenous and oral) [table] • Species: SPF grade male ICR mice • Body weight/weekly age: about 30 g • Amount: 6 • Experimental animal source: Charles River • Intravenous solvents: 5% DMSO—10% Solutol-85% HPBCD (20%, WN) • “Gavage solvent/dosage form: 5% DMSO—10% Solutol-85% HPBCD (20%, WN)” • Intravenous: 1 mg/kg in a volume of 5 mL/kg • Gavage: 10 mg/kg in a volume of 10 mL/kg • Ultrasound for 5 min before administration • Intravenous: 0.2 mg/mL • Gavage: 1 mg/mL • Fast overnight before administration and feed four hours after administration. […] The blood samples were stored in a refrigerator at or below −20 C for LC-MS/MS analysis. The samples were detected for drug concentration at each time point by LC-MS/MS. Pharmacokinetic parameters terminal elimination half-life (t½), area under the curve (AUC), apparent volume of distribution (Vd), clearance (CL), mean residence time (MRT), and Cmax were calculated using the non-compailinental model of Phoenix WinNonlin 5.2. Bioavailability (F %) was directly from serum concentration results. Mean standard deviation (X±SD) was used for blood concentration and pharmacokinetic parameters, etc. Specific testing and analytical methods were specified in the form of protocol revisions.

[6] = Pharmacokinetics on single dose in Beagle dogs (iv and po); assay type: in vivo, male Beagle dogs
Protocol: Pharmacokinetic properties of the drug in male Beagle dogs were evaluated by the same method with in vivo pharmacokinetic study with mice. The basic information is as follows: • Beagle: weighing 8-11 kg, purchased from Jiangsu Marshall Biotechnology Co., Ltd. • Dosage: 2 mg/kg (intravenous injection); 10 mg/kg (oral) • Solvent: 5% DMSO+5% Solutol+90% (20% HP-β-CD in Saline)

[7] = male, rat, plasma, SD rats, iv 1 mg/kg
[8] = male, rat, plasma, SD rats, po 10 mg/kg
[9] = male, mouse, plasma, ICR mice, iv 1 mg/kg
[10] = male, mouse, plasma, ICR mice, po 10 mg/kg

Structure (SMILES): [2H][C@]1(O)c2nc(-n3c4nc(Nc5ccc(N6CCC7(CCN(C)CC7)CC6)cc5)ncc4c(=O)n3CC=C)ccc2CCC12CC2 [Compound 37b]
- Maximum tolerated dose (in words) [1]: higher than that of the control compound AZD1775
- TGI ([2]; 30 mg/kg qd): 34.7%
- TGI ([2]; 60 mg/kg qd): 57.7%
- TGI ([2]; 120 mg/kg qd): 100.0%
- AUClast ([3]; SD rats, iv 1 mg/kg): 471 ng·h/mL
- C0 ([3]; SD rats, iv 1 mg/kg): 313.2 ng/mL
- T1/2 ([3]; SD rats, iv 1 mg/kg): 3.97 h
- AUClast ([3]; SD rats, po 10 mg/kg): 1131 ng·h/mL
- Cmax ([3]; SD rats, po 10 mg/kg): 188.6 ng/mL
- F ([3]; SD rats, po 10 mg/kg): 24.01%
- Tmax ([3]; SD rats, po 10 mg/kg): 2.67 h
- Drug exposure (in words) ([3]; rats, compared with AZD1775): obvious advantages in drug exposure
- T1/2 liver microsomes Monkey [4]: 0.633 h
- AUClast ([5]; ICR mice, iv 1 mg/kg): 558 ng·h/mL
- C0 ([5]; ICR mice, iv 1 mg/kg): 186 ng/mL
- Cl ([5]; ICR mice, iv 1 mg/kg): 26.3 mL/min/kg
- T1/2 ([5]; ICR mice, iv 1 mg/kg): 2.99 h
- AUClast ([5]; ICR mice, po 10 mg/kg): 1607 ng·h/mL
- Cl ([5]; ICR mice, po 10 mg/kg): 74 mL/min/kg
- Cmax ([5]; ICR mice, po 10 mg/kg): 307 ng/mL
- F ([5]; ICR mice, po 10 mg/kg): 29%
- Tmax ([5]; ICR mice, po 10 mg/kg): 2.67 h
- Pharmacokinetic properties (in words) ([5]; mice, compared with AZD1775): better pharmacokinetic properties than the control compound AZD1775
- AUClast ([6]; iv 2 mg/kg): 1602 ng·h/mL
- Cl ([6]; iv 2 mg/kg): 21.8 mL/min/kg
- T1/2 ([6]; iv 2 mg/kg): 5.05 h
- Vss ([6]; iv 2 mg/kg): 5.71 L/kg
- AUClast ([6]; po 10 mg/kg): 1816 ng·h/mL
- Cmax ([6]; po 10 mg/kg): 171 ng/mL
- F ([6]; po 10 mg/kg): 22.8%
- T1/2 ([6]; po 10 mg/kg): 4.69 h
- Tmax ([6]; po 10 mg/kg): 2.00 h

Structure (SMILES): C=CCn1c(=O)c2cnc(Nc3ccc(N4CCN(C)CC4)cc3)nc2n1-c1cccc(C(C)(C)O)n1 [AZD1775, reference compound]
- Death Numbers ([1]; female, 100 mg/kg): 0
- Death Rate ([1]; female, 100 mg/kg): 0%
- Death Numbers ([1]; female, 200 mg/kg): 0
- Death Rate ([1]; female, 200 mg/kg): 0%
- Death Numbers ([1]; female, 300 mg/kg): 2
- Death Rate ([1]; female, 300 mg/kg): 67%
- Death Numbers ([1]; male, 100 mg/kg): 0
- Death Rate ([1]; male, 100 mg/kg): 0%
- Death Numbers ([1]; male, 200 mg/kg): 0
- Death Rate ([1]; male, 200 mg/kg): 0%
- Death Numbers ([1]; male, 300 mg/kg): 0
- Death Rate ([1]; male, 300 mg/kg): 0%
- TGI ([2]; 60 mg/kg qd): 54.5%
- Cl ([3]; SD rats, po 10 mg/kg): 170.8 mL/min/kg
- F ([3]; SD rats, po 10 mg/kg): 121.8%
- AUC(0-t) [3, 7]: 72.3 ng·h/mL
- clearance [3, 7]: 148 mL/min/kg
- half-life [3, 7]: 0.91 h
- C0 ([3]; male, rat, plasma, SD rats, iv 1 mg/kg, read-out: C0): 101 ng/mL
- AUC(0-t) [3, 8]: 881 ng·h/mL
- half-life [3, 8]: 2.68 h
- Cmax ([3]; male, rat, plasma, SD rats, po 10 mg/kg, read-out: Cmax): 188 ng/mL
- half-life at 1 µM ([4]; read-out: T1/2 liver microsomes Monkey): 0.335 h
- Cl ([5]; ICR mice, po 10 mg/kg): 446 mL/min/kg
- F ([5]; ICR mice, po 10 mg/kg): 32%
- AUC(0-t) [5, 9]: 116 ng·h/mL
- clearance [5, 9]: 134 mL/min/kg
- half-life [5, 9]: 0.5 h
- C0 ([5]; male, mouse, plasma, ICR mice, iv 1 mg/kg, read-out: C0): 250 ng/mL
- AUC(0-t) [5, 10]: 396 ng·h/mL
- half-life [5, 10]: 0.87 h
- Cmax ([5]; male, mouse, plasma, ICR mice, po 10 mg/kg, read-out: Cmax): 398 ng/mL
- Tmax ([5]; male, mouse, plasma, ICR mice, po 10 mg/kg, read-out: Tmax): 0.42 h
- Vss ([6]; iv 2 mg/kg): 3.01 L/kg
- AUC(0-t) ([6]; male, dog, plasma, iv 2 mg/kg): 877 ng·h/mL
- clearance ([6]; male, dog, plasma, iv 2 mg/kg): 44 mL/min/kg
- half-life ([6]; male, dog, plasma, iv 2 mg/kg): 1.03 h
- AUC(0-t) ([6]; male, dog, plasma, po 10 mg/kg): 1620 ng·h/mL
- half-life ([6]; male, dog, plasma, po 10 mg/kg): 2.34 h
- Cmax ([6]; male, dog, plasma, po 10 mg/kg, read-out: Cmax): 405 ng/mL
- Tmax ([6]; male, dog, plasma, po 10 mg/kg, read-out: Tmax): 1.67 h
- F ([6]; po 10 mg/kg): 37.9%
